Values joined by “and” are separate entries in the source; they are usually repeats but may differ in a detail not shown here. Equal values may be shown once. Active and inactive are the calls of the source. No rule for the calls is given here.

The assay deals with in vivo angiogenesis, blood vessel count. The assay is described as follows: angiogenesis inhibition in living animals, in vivo study, HTS (AID 732).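 Also: zebrafish embryos dosed at one day post fertilization; 0% = reference inhibitor and 100% = plate mean.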 As to conditions: active compounds read low;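 tested at 30 µM in the well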.
Consider `N[C@H](CO)C(=O)O`, for which the vessel count % control is 105% (inactive).

Regarding `Oc1[nH]c2ccccc2c1C1=Nc2ccc(Br)cc2/C1=N\OCCN1CCCC1`, the vessel count % control is 91.2% (inactive) and 74% (inactive).

Take `CC(C)[C@@H]1NC(=O)[C@H](CCCCN)NC(=O)[C@@H](Cc2c[nH]c3ccccc23)NC(=O)[C@H](Cc2ccc(O)cc2)NC(=O)[C@H](C)N(C)C(=O)[C@H](Cc2ccccc2)NC1=O`: the vessel count % control was 101% (inactive).

As to `Nc1ncnc2c1ncn2[C@@H]1O[C@H](C(=O)NC2CC2)[C@H](O)C1O` (stereo partly drawn), the vessel count % control was 102% (inactive).

As to `CC12NC(Cc3ccccc31)c1ccccc12` (stereo not drawn), the vessel count % control is 76.2% (inactive).

For the compound `N[C@H](C(=O)O)[C@H]1C[C@@H]1C(=O)O`, the vessel count % control was 92.9% (inactive).

Consider `CCN(CC)CCNC(=O)c1ccc(N)cc1`, for which the vessel count % control was 139% (inactive).

As to `Cc1c(C(=O)c2cccc3ccccc23)c2cccc3c2n1[C@H](CN1CCOCC1)CO3`, the vessel count % control is 0% (inactive).

In the case of `COC(=O)Nc1nc2ccc(C(=O)c3cccs3)cc2[nH]1`, the vessel count % control is 150% (inactive).

As for `Cc1cnc(C(=O)NCCc2ccc(S(=O)(=O)NC(=O)NC3CCCCC3)cc2)cn1`, the vessel count % control is 106% (inactive).

Regarding `CC(C(=O)O)c1cccc(C(=O)c2ccccc2)c1` (stereo not drawn), the vessel count % control is 122% (inactive).

Regarding `N=C(N)c1ccccc1`, the vessel count % control was 110% (inactive).

As to `CC(NC(C)(C)C)C(=O)c1cccc(Cl)c1` (stereo not drawn), the vessel count % control was 71.1% (inactive).

Regarding `O=c1c(O)c(-c2ccc(O)c(O)c2)oc2cc(O)cc(O)c12`, the vessel count % control is 115% (inactive).

Regarding `COc1ccc2c(c1)[C@@]13CCCC[C@H]1[C@@H](C2)NCC3`, the vessel count % control was 78.3% (inactive).

Take `CC(N)=NCc1cccc(CN)c1`: the vessel count % control was 104% (inactive).

Regarding `c1ccc2sc(C3(N4CCCCC4)CCCCC3)cc2c1`, the vessel count % control was 93.4% (inactive).

On to `Cn1c(=O)c2[nH]cnc2n(C)c1=O`, for which the vessel count % control is 105% (inactive).

For `CC(C)N(CCC(=O)c1ccc2ccccc2c1)Cc1ccccc1`, the vessel count % control was 0% (inactive).

For `COc1ccc2c(c1)/C(=C/c1cnc[nH]1)C(=O)N2`, the vessel count % control was 73.2% (inactive).

As to `Cn1c(=O)c2c(ncn2C)n(C)c1=O`, the vessel count % control was 113% (inactive).

`COc1cc(CC(C)N)c(OC)cc1I` (stereo not drawn): the vessel count % control is 79.5% (inactive).

For `CN(C)c1nc(N)c(C(=O)N=C(N)N)nc1Cl`, the vessel count % control is 106% (inactive).

Take `CC(C)C[C@H](NC(=O)[C@@H](O)[C@H](N)Cc1ccccc1)C(=O)O`: the vessel count % control was 123% (inactive).

Consider `CCN(CC)CCOCCOC(=O)C1(c2ccccc2)CCCC1`, for which the vessel count % control is 108% (inactive).

Regarding `CCCN(CCC)CCc1c[nH]c2ccc(C(N)=O)cc12`, the vessel count % control was 80.1% (inactive).

With `C#C[C@]1(O)CC[C@H]2[C@@H]3CCC4=Cc5oncc5CC4(C)[C@H]3CCC21C` (stereo partly drawn), the vessel count % control was 118% (inactive).

On to `O=C1NC(=O)C(c2ccccc2[N+](=O)[O-])=C1Nc1ccc(O)c(Cl)c1`, for which the vessel count % control is 105% (inactive).

Turning to `CCCCCCCCCCCCCCCC(=O)NCC(COP(=O)([O-])OCC[N+](C)(C)C)OCC` (stereo not drawn), the vessel count % control was 115% (inactive).

Consider `COc1cc(OC)c(/C=C2/C(=O)Nc3ccccc32)c(OC)c1`, for which the vessel count % control is 44.4% (inactive).

With `CC(=O)Oc1ccccc1C(=O)O`, the vessel count % control is 105% (inactive).

Turning to `CC[C@@H](CO)NC(=O)[C@@H]1C=C2c3cccc4c3c(cn4C)C[C@H]2N(C)C1`, the vessel count % control is 70.9% (inactive).

On to `COc1ccc2c(c1OC)C(=O)O[C@H]2[C@@H]1c2cc3c(cc2CCN1C)OCO3`, for which the vessel count % control was 116% (inactive).

For the compound `CCCCCCCCCCCCCCCCOCC(COCC(F)(F)F)OP(=O)(O)OCO` (stereo not drawn), the vessel count % control is 109% (inactive).

On to `O=C(CCCN1CCC(O)(c2ccc(Cl)cc2)CC1)c1ccc(F)cc1`, for which the vessel count % control is 77.9% (inactive).

Turning to `Cc1c(CC(C)(C)C(=O)O)n(Cc2ccc(Cl)cc2)c2ccc(F)cc12`, the vessel count % control is 127% (inactive).

Regarding `N[C@H](C(=O)O)c1cc(O)cc(O)c1`, the vessel count % control is 108% (inactive).

In the case of `COc1ccccc1CNCCCCCCNCCCCCCCCNCCCCCCNCc1ccccc1OC`, the vessel count % control is 113% (inactive).

Turning to `O=C(Nc1ccccc1)c1cc([N+](=O)[O-])ccc1Cl`, the vessel count % control is 90.3% (inactive).

On to `CCC(=O)c1ccc2c(c1)N(CCCN(C)C)c1ccccc1S2`, for which the vessel count % control is 112% (inactive).

On to `CC(=O)CCCCn1c(=O)c2c(ncn2C)n(C)c1=O`, for which the vessel count % control is 109% (inactive).

With `NCCCCCCNS(=O)(=O)c1cccc2c(Cl)cccc12`, the vessel count % control was 117% (inactive).

With `CN1CCN(C(=O)OC2c3nccnc3C(=O)N2c2ccc(Cl)cn2)CC1` (stereo not drawn), the vessel count % control is 105% (inactive).

Turning to `Nc1nc2c(ncn2COCCO)c(=O)[nH]1`, the vessel count % control is 110% (inactive).

For `NCCc1ccc(O)cc1`, the vessel count % control was 90.2% (inactive).

Consider `CSC(N)=NCCC[C@H](N)C(=O)O`, for which the vessel count % control was 107% (inactive).

As to `C[C@H](N)CN1CCc2ccc(Br)cc21`, the vessel count % control is 126% (inactive).

As to `NC(=O)c1cccc(N)c1`, the vessel count % control was 117% (inactive).

`Cn1cnc([N+](=O)[O-])c1Sc1ncnc2nc[nH]c12`: the vessel count % control was 81.5% (inactive).

Consider `CCN1/C(=C/C(C)=O)Sc2ccc(OC)cc21`, for which the vessel count % control is 98% (inactive).

In the case of `NNC(=O)c1ccc(O)cc1`, the vessel count % control was 97.5% (inactive).

For `CCN(CC)c1ncnc2c1ncn2[C@@H]1O[C@H](COP(=O)(O)OP(=O)(O)C(Br)(Br)P(=O)(O)O)[C@@H](O)[C@H]1O`, the vessel count % control was 81.9% (inactive).

On to `CCCCCC[C@@H]([C@@H](C)O)n1cnc2c(N)ncnc21`, for which the vessel count % control is 85.8% (inactive).

As to `COc1ccc(/C=C/C(=O)Nc2ccccc2C(=O)O)cc1OC`, the vessel count % control was 100% (inactive).

For `O=C(OCCN1CCCCC1)c1c[nH]c2ccccc12`, the vessel count % control is 109% (inactive).

For the compound `Oc1ccc(/C=C/c2cc(O)cc(O)c2)cc1`, the vessel count % control was 100% (inactive).

Take `NCCNC(=O)c1ncsc1-c1cccc(F)c1`: the vessel count % control is 102% (inactive).

In the case of `NNC(N)=O`, the vessel count % control is 126% (inactive).
